# Assay results taken from paper PMC9170154, “Identification of an arthropod molecular target for plant-derived natural repellents” (Proceedings of the National Academy of Sciences of the …, 2022).
# Residue numbers refer to the chain shown, from its start.
# What was measured:
# Test in all cases: whole-cell patch clamp, HEK […]
# [1] = target: T1, dTRPγ (Drosophila melanogaster, UniProt Q9VJJ7); type: cell-based; details: dTRPγ mutant
# T1 construct: gene Trpgamma
# T1 sequence (Q9VJJ7 1-1128): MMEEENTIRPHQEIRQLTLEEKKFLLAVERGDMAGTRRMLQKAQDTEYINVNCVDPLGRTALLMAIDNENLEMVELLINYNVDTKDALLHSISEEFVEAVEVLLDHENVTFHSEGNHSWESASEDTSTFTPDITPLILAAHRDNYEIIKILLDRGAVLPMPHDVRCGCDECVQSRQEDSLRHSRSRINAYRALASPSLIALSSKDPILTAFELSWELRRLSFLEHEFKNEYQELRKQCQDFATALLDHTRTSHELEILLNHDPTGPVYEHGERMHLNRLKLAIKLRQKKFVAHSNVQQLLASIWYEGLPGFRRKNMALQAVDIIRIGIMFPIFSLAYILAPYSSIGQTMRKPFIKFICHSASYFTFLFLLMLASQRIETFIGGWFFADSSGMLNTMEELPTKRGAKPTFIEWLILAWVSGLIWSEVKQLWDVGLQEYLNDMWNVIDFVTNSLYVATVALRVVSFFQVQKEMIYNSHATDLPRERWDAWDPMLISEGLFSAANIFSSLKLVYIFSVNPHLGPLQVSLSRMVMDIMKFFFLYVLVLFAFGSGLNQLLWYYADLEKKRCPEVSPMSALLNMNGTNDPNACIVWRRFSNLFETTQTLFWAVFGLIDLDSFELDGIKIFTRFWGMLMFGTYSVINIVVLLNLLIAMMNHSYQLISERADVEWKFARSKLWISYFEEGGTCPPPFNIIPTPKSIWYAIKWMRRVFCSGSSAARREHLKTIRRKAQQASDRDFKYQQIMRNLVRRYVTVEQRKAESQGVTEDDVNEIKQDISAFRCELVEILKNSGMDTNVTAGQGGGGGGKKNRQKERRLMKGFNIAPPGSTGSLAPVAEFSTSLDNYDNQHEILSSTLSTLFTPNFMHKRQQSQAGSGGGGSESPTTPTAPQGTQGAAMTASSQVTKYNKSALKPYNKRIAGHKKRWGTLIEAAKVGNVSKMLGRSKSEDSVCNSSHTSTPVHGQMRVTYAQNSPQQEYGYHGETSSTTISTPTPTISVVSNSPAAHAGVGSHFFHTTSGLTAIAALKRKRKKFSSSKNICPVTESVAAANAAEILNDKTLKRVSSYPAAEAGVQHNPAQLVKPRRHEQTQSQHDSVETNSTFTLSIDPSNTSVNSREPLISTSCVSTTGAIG
# [2] = system: T2, sTRP1 (scorpion TRP1); type: cell-based, Olivierus martensii; details: agonist, after full sensitization
# T2 construct: full-length cDNA (791 residues) cloned by RACE PCR, in pIRES2-EGFP vector, transiently expressed in HEK 293T cells
# [3] = target: T1, dTRPγ; type: cell-based
# [4] = target: T1, dTRPγ; type: cell-based; details: agonist
# [5] = system: T2, sTRP1 (scorpion TRP1); type: cell-based, Olivierus martensii; details: current evoked by 2 mM citronellal after sensitization
# [6] = target: T3, dTRPγ (Drosophila melanogaster, UniProt Q9VJJ7, V515A); type: cell-based; details: dTRPγ mutant
# T3 construct: gene Trpgamma
# T3 sequence (Q9VJJ7 1-1128 V515A): T1 sequence (Q9VJJ7 1-1128) with V515A
smiles,measurement,setting,value
CC(C)=CCCC(C)CC=O (centres unmarked) [citronellal],"whole-cell patch clamp, HEK 293T",[1],mutant V513L reduced the response to citronellal and citronellol
same,EC50,[2]; nH 3.3,560 ± 10 µM
same,EC50,[3],870 ± 50 µM
CC12CCC(CC1=O)C2(C)C (centres unmarked) [camphor],EC50,[2]; nH 2.4,3300 ± 200 µM
same,"whole-cell patch clamp, HEK 293T",[4],"We here show that camphor activates both sTRP1 and dTRPγ (SI Appendix, Fig. S11)"
Cl.Cl.Cl.Cl.Cl.Cl.N.N.N.N.N.N.N.N.N.N.N.N.N.N.[O-2].[O-2].[Ru+3].[Ru+3].[Ru+4] [ruthenium red],IC50,"[5]; channel blocker, nH 1.6",3.12 ± 0.29 µM
NCCOB(c1ccccc1)c1ccccc1 [2-aminoethoxydiphenyl borate],IC50,"[5]; inhibitor, nH 1.3",48.3 ± 5.58 µM
CC(C)=CCCC(C)CCO (centres unmarked) [citronellol],"whole-cell patch clamp, HEK 293T",[1],mutant V513L reduced the response to citronellal and citronellol
same,EC50,[2]; nH 3.6,300 ± 10 µM
same,EC50,[3],490 ± 20 µM
same,"whole-cell patch clamp, HEK 293T",[6],the V515A substitution selectively impaired the sensitivity to citronellol and camphor
